Reference: ChEMBL document CHEMBL4371054, “Dual inhibition of Kif15 by oxindole and quinazolinedione chemical probes” (Bioorg Med Chem Lett, 2019)
Active and inactive are the calls of the source. The calls are words filed in the database; no cut-off is given here.

Columns and labels:
[1] = target: T1, Kinesin-like protein KIF15 (Homo sapiens) (UniProt Q9NS87); assay: Inhibition of recombinant His6-tagged Kif15 (N700 residues) (unknown origin) expressed in HeLa cells assessed as reduction in Alexa-594 labelled microtubule gliding at 750 nM measured every 2 secs for 20 secs by epifluorescence microscopic analysis (reference value: 1%); format: cell-based
T1 sequence (whole entry): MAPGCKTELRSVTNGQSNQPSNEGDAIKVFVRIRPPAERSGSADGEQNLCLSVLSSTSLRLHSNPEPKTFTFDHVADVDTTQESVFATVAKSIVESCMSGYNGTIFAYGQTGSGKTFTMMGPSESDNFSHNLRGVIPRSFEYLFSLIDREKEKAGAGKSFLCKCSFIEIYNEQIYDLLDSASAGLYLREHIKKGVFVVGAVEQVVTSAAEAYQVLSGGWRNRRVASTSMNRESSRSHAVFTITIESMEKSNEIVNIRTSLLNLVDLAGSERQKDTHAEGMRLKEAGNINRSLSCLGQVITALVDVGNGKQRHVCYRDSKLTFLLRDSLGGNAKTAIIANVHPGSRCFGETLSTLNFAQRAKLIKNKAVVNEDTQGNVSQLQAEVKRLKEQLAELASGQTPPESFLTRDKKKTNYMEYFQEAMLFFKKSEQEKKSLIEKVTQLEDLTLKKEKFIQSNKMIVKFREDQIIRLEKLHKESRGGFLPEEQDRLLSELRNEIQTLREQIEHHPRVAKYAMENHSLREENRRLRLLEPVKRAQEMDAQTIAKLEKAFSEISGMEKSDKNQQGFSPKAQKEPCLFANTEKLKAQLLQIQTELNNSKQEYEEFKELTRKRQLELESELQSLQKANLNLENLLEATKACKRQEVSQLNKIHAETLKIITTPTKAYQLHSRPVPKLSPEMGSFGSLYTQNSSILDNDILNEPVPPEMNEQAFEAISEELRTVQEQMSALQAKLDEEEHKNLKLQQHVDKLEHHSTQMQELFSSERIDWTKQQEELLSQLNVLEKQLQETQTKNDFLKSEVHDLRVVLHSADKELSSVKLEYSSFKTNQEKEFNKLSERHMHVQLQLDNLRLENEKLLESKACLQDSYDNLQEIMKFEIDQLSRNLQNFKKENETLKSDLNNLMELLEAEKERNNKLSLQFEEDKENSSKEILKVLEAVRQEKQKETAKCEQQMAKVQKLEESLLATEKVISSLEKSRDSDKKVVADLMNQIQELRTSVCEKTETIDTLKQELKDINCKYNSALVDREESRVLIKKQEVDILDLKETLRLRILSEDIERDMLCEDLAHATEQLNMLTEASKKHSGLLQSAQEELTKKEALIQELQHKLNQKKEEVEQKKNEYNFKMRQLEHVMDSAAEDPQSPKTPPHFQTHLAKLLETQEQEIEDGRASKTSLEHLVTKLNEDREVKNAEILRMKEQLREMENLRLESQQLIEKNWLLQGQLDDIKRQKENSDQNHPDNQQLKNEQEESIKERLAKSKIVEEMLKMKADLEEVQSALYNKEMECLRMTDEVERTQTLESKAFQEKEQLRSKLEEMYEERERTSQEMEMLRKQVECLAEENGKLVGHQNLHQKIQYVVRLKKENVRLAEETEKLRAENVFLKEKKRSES

[2] = target: T2, Kinesin-like protein KIF15 (Homo sapiens, UniProt Q9NS87); assay: (§1) Inhibition of recombinant His6-tagged Kif15 (N700 residues) (unknown origin) expressed in HeLa cells assessed as reduction in Alexa-594 labelled microtubule gliding measured every 2 secs for 20 secs by epifluorescence microscopic analysis; format: cell-based
T2 sequence (Q9NS87 whole entry): T1 sequence (whole entry)

[3] = target: T1, Kinesin-like protein KIF15 (Homo sapiens); assay: ATP competitive inhibition of recombinant His6-tagged Kif15 ATPase activity (N700 residues) (unknown origin) expressed in HeLa cells at 5 uM using microtubule as substrate preincubated for 30 mins followed by varying levels of ATP addition by double reciprocal Lineweaver-Burk plot analysis
[4] = target: T1, Kinesin-like protein KIF15 (Homo sapiens); assay: Inhibition of Kif15 in TP53-deficient human RPE1 cells assessed as cells with bipolar pre-anaphase microtubule structure at 25 uM after 24 hrs by Hoechst 33342 staining based immunofluorescence microscopic analysis (reference value: 90 to 94%); design: scale not given: the % may be the effect or the level left
[5] = target: T1, Kinesin-like protein KIF15 (Homo sapiens); assay: Inhibition of Kif15 in TP53-deficient human RPE1 cells assessed as reduction in spindle-bound Kif15 level at 25 uM after 24 hrs by Hoechst 33342 staining based immunofluorescence microscopic analysis relative to control
[6] = target: T1, Kinesin-like protein KIF15 (Homo sapiens); assay: Inhibition of Kif15 in TP53-deficient human RPE1 cells assessed as effect on spindle length at 25 uM after 24 hrs by Hoechst 33342 staining based immunofluorescence microscopic analysis (reference value: 11.4 +/- 0.2 um)
[7] = target: T1, Kinesin-like protein KIF15 (Homo sapiens); assay: Inhibition of Kif15 in TP53-deficient human RPE1 cells assessed as reduction in Kif15 level at 25 uM after 24 hrs by Western blot analysis relative to control
[8] = target: T2, Kinesin-like protein KIF15; assay: Inhibition of recombinant C-terminal truncated His6-tagged Kif15 (N700 residues) (unknown origin) expressed in Escherichia coli BL21 (DE3) assessed as reduction in microtubule gliding measured up to 2 mins
[9] = target: T1, Kinesin-like protein KIF15 (Homo sapiens); assay: Inhibition of Kif15 in K51-resistant human KIRC1 cells assessed as cells with monopolar spindles at 25 uM after 24 hrs by Hoechst 33342 staining based immunofluorescence microscopic analysis (reference value: 43 to 49%); design: scale not given: the % may be the effect or the level left
[10] = target: T1, Kinesin-like protein KIF15 (Homo sapiens); assay: as §1, with “Reversible inhibition” for “Inhibition”, “gliding at 10 uM treated for 1 min followed by compound washout and” for “gliding”, “1 min” for “20 secs”; format: cell-based
[11] = target: T2, Kinesin-like protein KIF15; assay: Inhibition of recombinant His6-tagged Kif15 ATPase activity (N420 residues) (unknown origin) expressed in HeLa cells using microtubule as substrate preincubated for 15 mins followed by ATP addition and measured after 20 mins by ADP-Glo luminescence assay
[12] = target: T1, Kinesin-like protein KIF15 (Homo sapiens); assay: Inhibition of recombinant His6-tagged Kif15 ATPase activity (N420 residues) (unknown origin) expressed in HeLa cells at 10 uM using microtubule as substrate preincubated for 15 mins followed by ATP addition and measured after 20 mins by ADP-Glo luminescence assay relative to control

SMILES	inhibition [1] [%]	also measured
O=C1Nc2ccc(C(=O)c3ccco3)cc2/C1=C/c1ccc(O)c(Br)c1	23	
O=C1Nc2ccc(C(=O)N3CCCC3)cc2/C1=C/c1cc(Cl)c(O)c(Cl)c1	-10	
O=C1Nc2ccc(-c3ccccn3)cc2/C1=C/c1cc(Cl)c(O)c(Cl)c1	7.3	
CCOC(=O)c1sc(NC(=O)[C@H](C(C)C)n2c(=O)[nH]c3ccccc3c2=O)nc1C		IC50 [2]: 0.2 µM; inhibition [3]: Active; Activity [4]: 96%; inhibition [5]: inactive; Activity [6]: 9.9 µm; inhibition [7]: 15%; IC50 [8]: 1.72 µM; Activity [9]: 84%; inhibition [10]: Active
O=C1Nc2ccc(-c3cccc(F)c3)cc2/C1=C/c1cc(Cl)c(O)c(Cl)c1	-5.8	
O=C1Nc2ccc(C(=O)c3ccco3)cc2/C1=C/c1ccc(O)nc1	26.5	
O=C1Nc2ccc(I)cc2/C1=C/c1cc(Br)c(O)c(Br)c1		IC50 [11]: 2.5 µM; inhibition [12]: 90%
O=C1Nc2ccc(I)cc2/C1=C/c1cc(F)c(O)c(F)c1	4.8	
O=C1Nc2ccc(C(=O)c3ccco3)cc2/C1=C/c1ccc(Br)c(O)c1	-5.6	
O=C1Nc2ccc(-c3ccco3)cc2/C1=C/c1cc(Cl)c(O)c(Cl)c1	33	
O=C1Nc2ccc(C(=O)c3ccco3)cc2/C1=C/c1ccncc1	0.8	
O=C1Nc2ccc(C(=O)c3ccco3)cc2/C1=C/c1cc(Br)cc(Br)c1	16	
CN(C)C(=O)c1ccc2c(c1)/C(=C/c1cc(Cl)c(O)c(Cl)c1)C(=O)N2	15.3	
O=C1Nc2ccc(C(=O)c3ccco3)cc2/C1=C/c1ccnc(Cl)c1	15.8	
O=C1Nc2ccc(I)cc2/C1=C/c1cc(Cl)c(O)c(Cl)c1	15	
O=C1Nc2ccc(C(=O)c3ccco3)cc2/C1=C/c1ccc(O)c(C(F)(F)F)c1	9.5	

Further lines, with some results ahead:

inhibition [1] [%]	SMILES	also measured
2.3	COc1ccc(/C=C2\C(=O)Nc3ccc(C(=O)c4ccco4)cc32)cc1Br	
26	O=C1Nc2ccc(C(=O)c3ccco3)cc2/C1=C/c1cc(I)c(O)c(I)c1	
38	O=C1Nc2ccc(C(=O)c3ccco3)cc2/C1=C/c1cc(F)c(O)c(Br)c1	
65	O=C1Nc2ccc(C(=O)c3ccco3)cc2/C1=C/c1cc(Br)c(O)c(Br)c1	
8.21	O=C1Nc2ccc(C(=O)c3ccco3)cc2/C1=C/c1cccc(O)c1	
-3.5	COc1cc(/C=C2\C(=O)Nc3ccc(C(=O)c4ccco4)cc32)cc(Cl)c1O	
62	O=C1Nc2ccc(C(=O)c3ccco3)cc2/C1=C/c1cc(Cl)c(O)c(Br)c1	
9	Cc1cc(/C=C2\C(=O)Nc3ccc(C(=O)c4ccco4)cc32)cc(C)c1O	
21	O=C1Nc2ccc(C(=O)c3ccco3)cc2/C1=C/c1cc(F)c(O)c(F)c1	
